Assay results published in patent US11578079B2, “SUMO inhibitor compounds and uses thereof” (CITY OF HOPE, priority 2018, dated 2023).

How the values were obtained:
[1] = target: T1, SUMO (Homo sapiens, UniProt Q9UBT2); test: SUMO activity (Table I, biological activities); format: biochemical; parameters: key: + (less active); ++ (active); +++ (most active)
T1 sequence (Q9UBT2 1-640): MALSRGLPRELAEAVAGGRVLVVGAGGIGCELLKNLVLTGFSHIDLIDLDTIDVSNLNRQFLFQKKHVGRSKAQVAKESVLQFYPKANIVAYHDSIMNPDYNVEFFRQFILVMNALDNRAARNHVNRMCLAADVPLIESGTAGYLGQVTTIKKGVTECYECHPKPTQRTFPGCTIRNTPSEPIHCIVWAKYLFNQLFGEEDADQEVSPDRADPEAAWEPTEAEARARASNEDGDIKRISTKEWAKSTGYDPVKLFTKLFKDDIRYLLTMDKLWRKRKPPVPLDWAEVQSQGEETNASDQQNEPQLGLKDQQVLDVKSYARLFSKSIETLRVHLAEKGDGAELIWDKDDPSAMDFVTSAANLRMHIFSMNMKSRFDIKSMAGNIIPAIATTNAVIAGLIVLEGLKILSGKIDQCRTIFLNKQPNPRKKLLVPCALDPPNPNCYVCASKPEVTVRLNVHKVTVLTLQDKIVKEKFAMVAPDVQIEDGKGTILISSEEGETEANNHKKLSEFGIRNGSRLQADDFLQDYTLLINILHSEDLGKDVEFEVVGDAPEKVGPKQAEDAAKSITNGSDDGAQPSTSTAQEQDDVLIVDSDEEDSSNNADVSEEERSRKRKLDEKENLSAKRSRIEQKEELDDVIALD
T1 sequence (Q9UBE0 1-346 partner): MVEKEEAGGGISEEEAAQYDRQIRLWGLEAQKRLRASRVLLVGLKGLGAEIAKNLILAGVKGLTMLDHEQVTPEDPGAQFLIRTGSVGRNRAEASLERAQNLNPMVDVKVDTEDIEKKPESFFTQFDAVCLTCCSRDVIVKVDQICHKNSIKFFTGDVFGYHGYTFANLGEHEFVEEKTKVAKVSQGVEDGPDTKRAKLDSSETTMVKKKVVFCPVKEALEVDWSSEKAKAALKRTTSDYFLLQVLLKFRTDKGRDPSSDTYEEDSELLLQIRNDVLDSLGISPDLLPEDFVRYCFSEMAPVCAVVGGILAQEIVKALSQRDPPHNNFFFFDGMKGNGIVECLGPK

[2] = test system: c-Myc; test: c-Myc activity (Table I, biological activities); parameters: key: + (less active); ++ (active); +++ (most active)

Row | SMILES | SUMO [1] | c-Myc [2]
1 | CCN(CC)CCNC(=O)C1=C(C(=O)OC)C2(C(Cc3ccccc3)Nc3ccc(F)cc3F)C=CC1O2 (centres unmarked) [Compound 412] | ++ | +
2 | C=CCC(Nc1ccccc1)C12C=CC(O1)C(C(=O)NCCN(C)C)=C2C(=O)OC (centres unmarked) [Compound 415] | ++ | +
3 | C=CCC(Nc1ccccc1)C12C=CC(O1)C(C(=O)NCCN(CC)CC)=C2C(=O)OC (centres unmarked) [Compound 416] | ++ | +
4 | COC(=O)C1=C(C(=O)OC)C2(C(Cc3ccccc3)Nc3cccc(F)c3)C=CC1O2 (centres unmarked) [Compound 417] | ++ | +
5 | COC(=O)C1=C(C(=O)NCC2CCCN2C)C2C=CC1(C(Cc1ccccc1)Nc1ccccc1)O2 (centres unmarked) [Compound 418] | ++ | ++
6 | COC(=O)C1=C(C(=O)NCCN(C)C(=O)OC(C)(C)C)C2C=CC1(C(Cc1ccccc1)Nc1ccccc1)O2 (centres unmarked) [Compound 419] | ++ | +
7 | COC(=O)C1=C(C(=O)NCCN(C)C)C2C=CC1(C(Cc1ccccc1)Nc1cccc(F)c1)O2 (centres unmarked) [Compound 420] | ++ | ++
8 | CCN(CC)CCNC(=O)C1=C(C(=O)OC)C2(C(Cc3ccccc3)Nc3cccc(F)c3)C=CC1O2 (centres unmarked) [Compound 421] | ++ | ++
9 | COC(=O)C1=C(C(=O)OC)C2(C(Cc3ccc(C(F)(F)F)cc3)Nc3ccccc3)C=CC1O2 (centres unmarked) [Compound 422] | ++ | +
10 | COC(=O)C1=C(C(=O)NCCN(C)C)C2C=CC1(C(Cc1ccc(C(F)(F)F)cc1)Nc1ccccc1)O2 (centres unmarked) [Compound 423] | ++ | ++
11 | CCN(CC)CCNC(=O)C1=C(C(=O)OC)C2(C(Cc3ccc(C(F)(F)F)cc3)Nc3ccccc3)C=CC1O2 (centres unmarked) [Compound 424] | ++ | ++
12 | COC(=O)C1=C(C(=O)OC)C2(C(Cc3ccc(Cl)cc3)Nc3cc(F)cc(F)c3)C=CC1O2 (centres unmarked) [Compound 425] | ++ | +
13 | COC(=O)C1=C(C(=O)NCCN(C)C)C2C=CC1(C(Cc1ccc(Cl)cc1)Nc1cc(F)cc(F)c1)O2 (centres unmarked) [Compound 426] | ++ | ++
14 | CCN(CC)CCNC(=O)C1=C(C(=O)OC)C2(C(Cc3ccc(Cl)cc3)Nc3cc(F)cc(F)c3)C=CC1O2 (centres unmarked) [Compound 427] | ++ | ++
15 | COC(=O)C1=C(C(=O)OC)C2(C(Cc3ccc(C)cc3)Nc3cc(F)cc(F)c3)C=CC1O2 (centres unmarked) [Compound 428] | ++ | +
16 | CCN(CC)CCNC(=O)C1=C(C(=O)OC)C2(C(Cc3ccc(C)cc3)Nc3cc(F)cc(F)c3)C=CC1O2 (centres unmarked) [Compound 429] | ++ | ++
17 | CCN(CC)CCNC(=O)C1=C(C(=O)OC)C2(C(Cc3ccc(C)cc3)Nc3cc(F)cc(F)c3)C=CC1O2 (centres unmarked) [Compound 430] | ++ | ++
18 | COC(=O)C1=C(C(=O)NCCN(C)C)C2C=CC1(C(Cc1ccccc1)Nc1c(F)cccc1F)O2 (centres unmarked) [Compound 431] | ++ | +
19 | COC(=O)C1=C(C(=O)NCCN(C)C)C2C=CC1(C(Cc1ccccc1)Nc1c(F)cccc1F)O2 (centres unmarked) [Compound 432] | ++ | +
20 | CCN(CC)CCNC(=O)C1=C(C(=O)OC)C2(C(Cc3ccccc3)Nc3c(F)cccc3F)C=CC1O2 (centres unmarked) [Compound 433] | ++ | +
21 | CCOC(=O)C1=C(C(=O)NCCN(CC)CC)C2C=CC1(C(Cc1ccccc1)Nc1c(F)cccc1F)O2 (centres unmarked) [Compound 434] | ++ | ++
22 | COC(=O)C1=C(C(=O)NCCN(C)C)C2C=CC1(C(Cc1cccc(F)c1)Nc1cc(F)cc(F)c1)O2 (centres unmarked) [Compound 435] | +++ | ++

Row | SMILES | SUMO [1] | c-Myc [2]
23 | CCN(CC)CCNC(=O)C1=C(C(=O)OC)C2(C(Cc3cccc(F)c3)Nc3cc(F)cc(F)c3)C=CC1O2 (centres unmarked) [Compound 436] | +++ | ++
24 | CNCCNC(=O)C1=C(C(=O)OC)C2(C(Cc3ccccc3)Nc3ccccc3)C=CC1O2 (centres unmarked) [Compound 437] | + | +
25 | COC(=O)C1=C(C(=O)NCCN(C)C)C2C=CC1(C(Cc1ccccc1)Oc1ccccc1)O2 (centres unmarked) [Compound 438] | ++ | ++
26 | CCN(CC)CCNC(=O)C1=C(C(=O)OC)C2(C(Cc3ccccc3)Oc3ccccc3)C=CC1O2 (centres unmarked) [Compound 439] | ++ | ++
27 | COC(=O)C1=C(C(=O)NCCN2CCCC2)C2C=CC1(C(Cc1ccc(C(F)(F)F)cc1)Nc1ccccc1)O2 (centres unmarked) [Compound 440] | +++ | ++
28 | COC(=O)C1=C(C(=O)NCCN2CCCC2)C2C=CC1(C(Cc1ccc(Cl)cc1)Nc1cc(F)cc(F)c1)O2 (centres unmarked) [Compound 441] | +++ | ++
29 | COC(=O)C1=C(C(=O)NCCN2CCCC2)C2C=CC1(C(Cc1ccc(C)cc1)Nc1cc(F)cc(F)c1)O2 (centres unmarked) [Compound 442] | +++ | ++
30 | COC(=O)C1=C(C(=O)NCCN2CCCC2)C2C=CC1(C(Cc1ccccc1)Nc1ccc(F)cc1)O2 (centres unmarked) [Compound 443] | +++ | ++
31 | COC(=O)C1=C(C(=O)NCCN2CCCC2)C2C=CC1(C(Cc1ccccc1)Nc1cc(F)cc(Cl)c1)O2 (centres unmarked) [Compound 444] | +++ | ++
32 | COC(=O)C1=C(C(=O)OC)C2(C(Cc3ccc(F)cc3)Nc3ccccc3)C=CC1O2 (centres unmarked) [Compound 445] | ++ | +
33 | CCOC(=O)C1=C(C(=O)OCC)C2(C(Cc3ccc(F)cc3)Nc3ccccc3)C=CC1O2 (centres unmarked) [Compound 446] | ++ | +
34 | COC(=O)C1=C(C(=O)NCCN(C)C)C2C=CC1(C(Cc1ccc(F)cc1)Nc1cc(F)cc(Cl)c1)O2 (centres unmarked) [Compound 452] | ++ | +
35 | CCN(CC)CCNC(=O)C1=C(C(=O)OC)C2(C(Cc3ccc(F)cc3)Nc3cc(F)cc(Cl)c3)C=CC1O2 (centres unmarked) [Compound 453] | ++ | +
36 | COC(=O)C1=C(C(=O)NCCN(C)C)C2C=CC1(C(Cc1ccccc1F)Nc1cc(F)cc(F)c1)O2 (centres unmarked) [Compound 455] | ++ | ++
37 | CCN(CC)CCNC(=O)C1=C(C(=O)OC)C2(C(Cc3ccccc3F)Nc3cc(F)cc(F)c3)C=CC1O2 (centres unmarked) [Compound 456] | ++ | ++
38 | COC(=O)C1=C(C(=O)NCCN2CCC2)C2C=CC1(C(Cc1ccccc1)Nc1ccccc1)O2 (centres unmarked) [Compound 469] | ++ | +
39 | COC(=O)C1=C(C(=O)Nc2cnc(C)nc2)C2C=CC1(C(Cc1ccccc1)Nc1ccccc1)O2 (centres unmarked) [Compound 478] | +++ | +
40 | COC(=O)C1=C(C(=O)Nc2cnc(C)nc2)C2C=CC1(C(Cc1ccccc1)Oc1ccccc1)O2 (centres unmarked) [Compound 480] | ++ | +
41 | CCOC(=O)C1=C(C(=O)Nc2ccc(C)c(F)c2)C2C=CC1(C(Oc1ccc(F)cc1)c1ccc(CN3CCOCC3)cc1)O2 (centres unmarked) [Compound 486] | + | ++
42 | COC(=O)C1=C(C(=O)NC2CCN(C)CC2)C2C=CC1(C(Cc1ccc(C(F)(F)F)cc1)Nc1ccccc1)O2 (centres unmarked) [Compound 488] | ++ | ++
43 | COC(=O)C1=C(C(=O)Nc2ccc(CN(C)C)c(F)c2)C2C=CC1(C(Cc1ccccc1)Nc1ccccc1)O2 (centres unmarked) [Compound 489] | ++ | +
